Assay: Thermogravimetric analysis under air
Type: physicochemical
Experimental: A thermogravimetric analysis under air of the compound 3a was also carried out after storage exposed to the air for 3 weeks.
By way of comparison, a thermogravimetric analysis of an imidazolium iodide not coming within the invention, namely 1,3-dimethylimidazolium iodide (DMII), was also carried out.
The results obtained are given in the appended FIGS. 1 and 2. FIG. 1 gives the results of the calorimetric analysis of the compound 3a. In this figure, the heat flux (in W/g) is a function of the temperature (in ° C.). FIG. 2 gives the results of the thermogravimetric analysis for the compound 3a (continuous line) in comparison with the DMII (noncontinuous line).
In comparison, DMII allows a loss in weight of the order of 30% originating from the water captured as a result of its hygroscopicity.

temperature up to which the compound is stable (thermogravimetric analysis under air)	Compound	loss in weight originating from captured water (hygroscopicity) (thermogravimetric analysis)	hygroscopicity (after storage exposed to the air for 3 weeks)
–	Cn1cc[n+](C)c1.[I-] [DMII, 1,3-Dimethylimidazolium iodide, reference compound]	~30%	–
300 °C	COC(=O)CCc1cn(C)c[n+]1C.[I-] [Compound 3a, 4-(3-methoxy-3-oxopropyl)-1,3-dimethyl-1H-imidazol-3-ium Iodide]	–	does not exhibit any hygroscopicity nature

— patent US10475593B2, “Use of halogen derivatives of histidine as electrolytic salt in a photovoltaic dye cell” (CENTRE NATIONAL DE LA RECHERCHE SCIENTIFIQUE, priority 2014, dated 2019)
